# Assay results: patent US20220213119A1, “THIENOHETEROCYCLIC DERIVATIVE, PREPARATION METHOD THEREFOR AND MEDICAL USE THEREOF” (Jiangsu Hengrui Medicine Ca, Lid., priority 2019, published 2022)
# Target: T1, ERK2 (Homo sapiens, UniProt P28482)
# T1 construct: purchased R&D 1230-KS-010
# Assay: ERK2 enzyme activity test (ADP-Glo Kinase Assay)
# Type: biochemical
# Settings: chemiluminescence
# Procedure: The purpose of this experiment is to detect the inhibitory ability of the compounds on the ERK2 enzyme activity and evaluate the activity of the compounds in vitro according to IC50. The ADP-Glo™ Kinase Assay Kit was used in this experiment. Under the action of enzyme, the substrate was phosphorylated and ADP was produced at the same time. The ADP-Glo Reagent was added to remove unreacted ATP in the reaction system. The kinase detection reagent was used to detect the ADP produced by the reaction. In the presence of the compound, the inhibition rate of the compound was calculated by measuring the signal value.
# Enzyme and substrate preparation: ERK2 (1230-KS-010, R&D) and substrate (Custom peptides, Gill Biochemical) were prepared to be 0.75 ng/μl and 1500 μM in the buffer (40 mM Tris, 20 mM MgCl2, 0.1 mg/mL BSA, 50 μM DTT). The enzyme solution and substrate solution were then prepared into a mixed solution at a volume ratio of 2:1 for later use. ATP was diluted to 500 μM with the buffer. The compounds were dissolved in DMSO (dimethyl sulfoxide, Shanghai Titan Scientific Co., Ltd.) to prepare a stock solution with an initial concentration of 20 mM, and then Bravo was used to prepare solutions of the compounds. Finally, a 3 μL of a mixed solution of enzyme and substrate, and 1 μL of different concentrations of the compound (the initial concentration is 50 μM, 4-fold dilution) were added to each well of the 384-well plate, and the plate was incubated at 30° C. for 10 minutes, and finally 1 μL of 500 μM ATP solution was added to each well, and the plate was incubated at 30° C. for 2 hours. Then 5 μL of ADP-Glo was added, and the plate was incubated at 30° C. for 40 minutes. Then 10 μL of Kinase detection buffer was added, and the plate was incubated at 30° C. for 40 minutes. The 384-well plate was taken out and placed in a microplate reader (BMG labtech, PHERAstar FS), and the chemiluminescence was measured by the microplate reader.
# The data were processed and analyzed with Microsoft Excel, Graphpad Prism 5.
# T1 sequence (P28482 whole entry): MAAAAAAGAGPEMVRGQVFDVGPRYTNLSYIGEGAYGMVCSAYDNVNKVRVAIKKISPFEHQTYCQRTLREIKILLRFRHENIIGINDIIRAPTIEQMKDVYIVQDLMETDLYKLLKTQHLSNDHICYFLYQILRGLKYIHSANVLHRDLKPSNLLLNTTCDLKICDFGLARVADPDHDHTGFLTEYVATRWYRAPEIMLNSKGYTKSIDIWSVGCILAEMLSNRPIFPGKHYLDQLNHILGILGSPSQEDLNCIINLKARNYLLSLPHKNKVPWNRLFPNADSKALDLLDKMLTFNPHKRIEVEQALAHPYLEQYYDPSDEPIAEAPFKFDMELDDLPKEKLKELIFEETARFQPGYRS
compound,measurement,value
"CC(C(=O)N[C@H](CO)c1cccc(Cl)c1)N1C(=O)c2cc(-c3nc(NC4CCOCC4)ncc3Cl)sc2C1(C)C (stereo partly drawn) [Example 5, 2-(2-(5-Chloro-2-((tetrahydro-2H-pyran-4-yl)amino)pyrimidin-4-yl)-6,6-dimethyl-4-oxo-4,6-dihydro-5H-thieno[2,3-c]pyrrol-5-yl)-N-((S)-1-(3-chlorophenyl)-2-hydroxyethyl)propionamide]",IC50,22 nM
"Cc1cccc([C@@H](CO)NC(=O)[C@H](C)N2CCc3sc(-c4nc(NC5CCOCC5)ncc4Cl)cc3C2=O)c1 [Example 3-P1, (S)-2-(2-(5-Chloro-2-((tetrahydro-2H-pyran-4-yl)amino)pyrimidin-4-yl)-4-oxo-6,7-dihydrothieno[3,2-c]pyridin-5(4H)-yl)-N-((S)-2-hydroxy-1-(m-methylphenyl)ethyl)propionamide]",IC50,203 nM
"O=C(CN1CCc2sc(-c3ccnc(NC4CCOCC4)n3)cc2C1=O)N[C@H](CO)c1cccc(Cl)c1 [Example 6, (S)-N-(1-(3-Chlorophenyl)-2-hydroxyethyl)-2-(4-oxo-2-(2-((tetrahydro-2H-pyran-4-yl)amino)pyrimidin-4-yl)-6,7-dihydrothieno[3,2-c]pyridin-5(4H)-yl)acetamide]",IC50,29 nM
"C[C@@H](C(=O)N[C@H](CO)c1cccc(Cl)c1)N1CCc2sc(-c3nc(NC4CCOCC4)ncc3Cl)cc2C1=O [Example 4-P1, (S)-2-(2-(5-Chloro-2-((tetrahydro-2H-pyran-4-yl)amino)pyrimidin-4-yl)-4-oxo-6,7-di hydrothieno[3,2-c]pyridin-5(4H)-yl)-N-((S)-1-(3-chlorophenyl)-2-hydroxyethyl)propionamide]",IC50,434 nM
"COc1cc(F)cc([C@@H](CO)NC(=O)[C@H](C)N2CCc3sc(-c4nc(NC5CCOCC5)ncc4Cl)cc3C2=O)c1 [Example 9-P1, (S)-2-(2-(5-Chloro-2-((tetrahydro-2H-pyran-4-yl)amino)pyrimidin-4-yl)-4-oxo-6,7-dihydrothieno[3,2-c]pyridin-5(4H)-yl)-N-((S)-1-(3-fluoro-5-methoxyphenyl)-2-hydroxyethyl)prop ionamide]",IC50,410 nM
"CC1(C)c2sc(-c3nc(NC4CCOCC4)ncc3Cl)cc2C(=O)N1CC(=O)N[C@H](CO)c1cccc(Cl)c1 [Example 2, (S)-2-(2-(5-Chloro-2-((tetrahydro-2H-pyran-4-yl)amino)pyrimidin-4-yl)-6,6-dimethyl-4-oxo-4,6-dihydro-5H-thieno[2,3-c]pyrrol-5-yl)-N-(1-(3-chlorophenyl)-2-hydroxyethyl)acetamide]",IC50,3 nM
